The record followed here is PubChem BioAssay (NCI).

Common to all, as to test: DTP human tumour cell line panel, 48 h
Assay [1] relates to HL-60(TB) leukemia.
Assay [2] deals with CAKI-1 renal.
The test system of assay [3] is MDA-MB-231 breast.
Assay [4] has as its system IGROV1 ovarian.
Assay [5] relates to KM12 colon.
For assay [6], the system named is SF-268 CNS.
The test system of assay [7] is MOLT-4 leukemia.
Assay [8] concerns CCRF-CEM leukemia.
Assay [9] concerns SF-295 CNS.
Assay [10] concerns SK-MEL-2 melanoma.
Assay [11] relates to SF-539 CNS.
For assay [12], the system named is MDA-MB-435.
Assay [13] relates to SN12C renal.
Assay [14] concerns HCT-116 colon.
Assay [15] deals with HOP-62 NSCLC.
Assay [16] relates to OVCAR-3 ovarian.
The subject of assay [17] is NCI-H23 lung.
Assay [18] has as its system LOX IMVI melanoma.
The test system of assay [19] is NCI-H522 lung.

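Compound exposure: 48 hours, 5 concentrations, 96-well plates. TGI: total growth inhibition.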 Where only a bound is given, the exact number is not on record here.

For orientation: TGI means the concentration at which net growth stops. The low end stands for more potent growth arrest, the high end for less potent growth arrest. `O=C(CP(=O)(c1ccccc1)c1ccccc1)c1cccc(C(=O)CP(=O)(c2ccccc2)c2ccccc2)c1`: the TGI in assay [1], in assay [2], in assay [3], in assay [4], in assay [5] and in [6] was above 100 µM each time. The TGI in assay [7] was above 100 µM; in assay [8], above 100 µM; in assay [9], 30 µM; in [10], above 100 µM; in [11], above 100 µM; in [12], above 100 µM. The TGI in assay [13], in assay [14] and in assay [15] was above 100 µM throughout.

With `COc1ccccc1C[C@@H]1OC2(C=CC(=O)CC2SC(=O)c2ccccc2)O[C@H]1Cc1ccccc1OC` (some centres not stated), the concentration for total growth inhibition (TGI) is 5.64 µM in [1]; 4.93 µM in [16]; 5.24 µM in assay [2]; 7.23 µM in assay [3]; 2.74 µM in assay [4]; 8.4 µM in assay [5]. Further, the TGI in assay [6] amounted to 2.44 µM; in [7] it was 19.5 µM; in assay [8] it was 1.03 µM; in [17] it was 5.43 µM; in assay [9], 4.14 µM; in assay [10], 3.31 µM. Moreover, the TGI turned out to be 3.08 µM in assay [11]; 4.61 µM in assay [12]; 6.49 µM in assay [13]; 0.651 µM in [14]; 1.9 µM in [18]; 3.03 µM in assay [15].

Consider `OCC1OC(NC(=S)NCCC(F)(F)C(F)(F)C(F)(F)C(F)(F)C(F)(F)C(F)(F)F)C(O)C(O)C1O` (configuration not stated), for which the TGI in [1], in assay [16], in assay [2], in [3], in assay [4] and in assay [5] was above 100 µM in each case. Also, the TGI in assay [6], in assay [7], in assay [8], in assay [17], in assay [9] and in [10] was above 100 µM throughout. The TGI in assay [11], in assay [12], in assay [13], in [14], in [18] and in assay [15] was above 100 µM in each case.

In the case of `CC[C@]12C=CCN3CC[C@@]4(c5cc(Br)c(OC)c([N+](=O)[O-])c5N(C)[C@H]4[C@@](O)(C(=O)OC)[C@@H]1OC(C)=O)[C@@H]32`, the TGI in [1] was above 100 µM; in assay [16], above 100 µM; in assay [2], above 100 µM; in assay [3], above 100 µM; in [4], 61.4 µM; in assay [5], above 100 µM. The TGI in assay [6] is above 100 µM; in assay [7] it was 70.6 µM; in assay [8], above 100 µM; in assay [17] it was above 100 µM; in assay [9], above 100 µM; in [10] it was above 100 µM. The TGI in assay [11], in assay [12], in assay [13], in [14], in assay [18] and in assay [15] was above 100 µM each time.

For the compound `C1=C(CC2=C[P+](c3ccccc3)(c3ccccc3)C=C(c3ccccc3)O2)OC(c2ccccc2)=C[P+]1(c1ccccc1)c1ccccc1`, the TGI in assay [1] was 0.446 µM; in assay [16], 1.16 µM; in assay [2] it was 5.39 µM; in assay [3] it was 0.938 µM; in assay [4], 0.43 µM; in assay [5] it was 1.1 µM. Further, the TGI in assay [6] worked out at 1.61 µM; in assay [7] it was 1.6 µM; in [8] it was 1.54 µM; in assay [17] it was 2.2 µM; in [9], 1.84 µM; in assay [11], 1.36 µM. The TGI in [12] amounted to 1.11 µM; in assay [14] it was 1.25 µM; in assay [18] it was 1.67 µM; in [15], 1.88 µM.

On to `O=[N+]([O-])/C(C(Cl)=C(Cl)Cl)=C1\Nc2ccc([N+](=O)[O-])cc2N1`, for which the TGI in assay [16], in assay [2], in [3], in assay [5], in assay [6] and in [7] was above 100 µM each time. Besides, the TGI in assay [8] is 56.2 µM; in assay [17], above 100 µM; in [9], above 100 µM; in assay [19], 63 µM; in assay [10], above 100 µM; in assay [12], above 100 µM. The TGI in [13], in assay [14] and in [15] was above 100 µM in each case.

On to `COc1ccc(NC(=S)Nc2cc(C)ccn2)cc1`, for which the TGI in [1], in [2], in assay [3], in assay [4], in assay [5] and in [6] was above 100 µM in each case. Besides, the TGI in assay [7], in [8], in [17], in [10], in assay [11] and in [12] was above 100 µM throughout. The TGI in assay [14], in [18] and in assay [15] was above 100 µM throughout.

For `COc1ccc(CC2Cc3ccccc3CCN2)cc1OC` (configuration not stated), the TGI in assay [1], in assay [16], in assay [2], in assay [3], in [4] and in assay [5] was above 50 µM throughout. For the same compound, the total growth inhibition concentration (TGI) in assay [6], in assay [7], in assay [8], in assay [17], in assay [9] and in assay [10] was above 50 µM each time. Also, the TGI in [11], in [12], in assay [13], in [14], in [18] and in assay [15] was above 50 µM throughout.

As to `CC(=O)NC1C(OCc2ccccc2)OC(CO)C(O)C1OC(C)C(=O)NC(C(=O)NC(CCC(=O)NCCCC(=O)Nc1ccc2c(c1)CN1C(=O)c3ccccc3C1=N2)C(N)=O)C(C)C` (configuration not stated), the TGI in assay [1], in assay [16], in assay [2], in assay [3], in assay [4] and in [5] was above 100 µM each time. The TGI in assay [6], in assay [7], in [8], in [17], in [9] and in [10] was above 100 µM throughout. Also, the TGI in assay [11], in assay [12], in [13], in assay [14], in [18] and in assay [15] was above 100 µM throughout.

Take `COc1cc2c(cc1OCCCNC(=O)c1cc3ccccc3[nH]1)N=C[C@@H]1CCCN1C2=O`: the TGI in [16] is above 100 µM; in [3], above 35.2 µM; in [4] it was 0.74 µM; in assay [5], 1.84 µM; in assay [6], 0.237 µM; in assay [7] it was above 100 µM. The TGI in assay [8] was above 100 µM; in [9], above 31.9 µM; in assay [19], 0.0462 µM; in [10], 0.418 µM; in assay [11], 0.539 µM; in assay [12] it was 0.716 µM. Also, the TGI was 14.9 µM in [13], 14.3 µM in assay [14], above 100 µM in assay [18] and 21.6 µM in assay [15].

As for `CC(C)CCCC(C)[C@H]1CC[C@H]2n3c(nnc3-c3ccccc3)CCC[C@]12C` (some centres not stated), the TGI in assay [1] is 16.2 µM; in assay [16] it was 25.2 µM; in assay [2], 29.7 µM; in assay [3], 37.9 µM; in assay [4], 23.4 µM; in assay [5] it was above 100 µM. Further, the TGI was 28.2 µM in assay [6]; 13.2 µM in assay [7]; 24.6 µM in assay [8]; 28.8 µM in assay [17]; 21.9 µM in assay [9]; 29.8 µM in assay [10]. Moreover, the TGI in assay [11] came out at 25.1 µM; in assay [12], 25.7 µM; in assay [13], 27.5 µM; in assay [14], 40.4 µM; in assay [18], 12.5 µM; in [15], 37.5 µM.

As to `Cc1c2c(cc3c1C(=O)C(=O)C([C@@H](C)CO)=C3O)C(C)(C)CCC2`, the TGI in assay [16] was above 100 µM; in assay [2], above 100 µM; in [3], above 100 µM; in assay [4] it was above 100 µM; in assay [5] it was 34.2 µM; in assay [6], above 100 µM. Besides, the TGI is 93.2 µM in assay [7]; 40.7 µM in assay [8]; 45.2 µM in assay [17]; above 100 µM in assay [9]; 62.8 µM in assay [19]; 47.2 µM in assay [10]. The total growth inhibition concentration (TGI) was above 100 µM in [12]; above 100 µM in assay [13]; 93.1 µM in assay [14]; above 100 µM in assay [18]; above 100 µM in assay [15].
